How the values were obtained:
[1] = biological target: T1, Transthyretin (Homo sapiens, UniProt P02766); assay: Binding affinity to TTR (unknown origin) by isothermal titration calorimetric analysis
[2] = biological target: T1, Transthyretin; assay: Binding affinity to TTR in human plasma assessed as protein stabilization preincubated for 1 hr followed by urea-mediated denaturation by Western blot analysis
[3] = Half life in plasma (unknown origin); format: ADME, cell-free

| Structure (SMILES) | Kd [1] | IC50 ([2]; read-out: IC50) | IC50 [2] | half-life [3] |
| --- | --- | --- | --- | --- |
| O=C(O)COC(=O)Cc1ccccc1Nc1c(Cl)cccc1Cl [ACECLOFENAC] | 1.2 µM | 170 µM | – | – |
| O=c1cc(-c2ccc(O)cc2)oc2cc(O)cc(O)c12 [APIGENIN] | 0.25 µM | – | 18 µM | – |
| O=C(O)Cc1ccccc1Nc1c(Cl)cccc1Cl [DICLOFENAC] | 1 µM | 140 µM | – | – |
| Cc1ccc(C)c(OCCCC(C)(C)C(=O)O)c1 [GEMFIBROZIL] | 0.1 µM | 180 µM | – | 1.5 h |
| O=c1cc(-c2ccc(O)c(O)c2)oc2cc(O)cc(O)c12 [LUTEOLIN] | 0.07 µM | 7 µM | – | – |
| Cc1ccc(Cl)c(Nc2ccccc2C(=O)O)c1Cl [MECLOFENAMIC ACID] | 0.48 µM | 50 µM | – | – |
| Cc1c(Cl)cccc1Nc1ccccc1C(=O)O [TOLFENAMIC ACID] | 0.15 µM | 40 µM | – | – |
